Experimental data as given in patent EP0549433A1, “Use of N'-substituted N-phenylsulfonylureas in the treatment of hypertension in insulin-resistant patients” (ADIR ET COMPAGNIE, priority 1991, dated 1993).

Test system: rat âgé
Experiment: Chronic treatment of the aged rat: arterial blood pressure
Assay type: in vivo
Conditions: young rat (3 months per Tableau 1); 0,1 à 1 mg /kg par jour for 2 weeks
Method: Etude du traitement chronique du rat âgé
Au cours du vieillissement, une insulino-résistance apparaît, accompagnée d'une hyperinsulinémie et d'une élévation de la pression artérielle (cf tableau 1 ci-après).
A titre d'exemple, le traitement par le gliclazide à la dose de 0,1 à 1 mg /kg par jour pendant 2 semaines, diminue la pression artérielle du rat âgé de 9.10² à 11.10² Pa sans modifier celle du rat jeune.

Compound: Cc1ccc(S(=O)(=O)NC(=O)NN2CC3CCCC3C2)cc1 (stereo not shown) [gliclazide]
- pression artérielle du rat jeune: sans modifier
